Entries after “also recorded” stand apart in the source; their conditions may differ.
What was measured:
human tau (hTau) = test: Western blotting of tau in primary neurons with hTau overexpression in the presence of MG132; type: cell-based
Protocol: (§1) Primary hippocampal neurons were prepared from E12–E15 days SD rat embryos. Briefly, pregnant rats were acutely executed, hippocampus was dissected on ice and gently minced in DME/F12 (Hyclone) then suspended in 0.125% (vol/vol) trypsin solution at 37 °C for 20 min. Enzymatic activity was stopped by fetal bovine serum. Neurons were initially kept in 10% FBS-containing DME/F12 for 4–6 h, and subsequently cultured in Neurobasal (Hyclone) with 2% B27, 1% glutamax and 1% penicillin–streptomycin (Thermo Fisher Scientific) in dishes pre-coated with 100 μg/mL poly-D-lysine. Serum was gradually removed by replacing half of the medium for each time within the following 2 days. Especially, to inhibit the proteasome-dependent proteolysis, the cultured hippocampal neurons were treated with 5 μM MG132 for 5 h before harvest.
Cultured cells or hippocampus tissues were collected on ice, and homogenized with RIPA lysis buffer containing 50 mM Tris-HCl, 100 mM NaCl, 1% Triton X-100, 5 mM EDTA, and 1:100 PMSF, and then centrifuged at 12,000 × g for 20 min. The supernatant was collected for the analysis of soluble proteins. In some experiments, the pellets were further incubated with 8% SDS buffer at 37 °C and then ultrasound for 60 times to reach a complete resuspension for the analysis of insoluble tau. Protein concentration was measured through BCA assays (Thermo Fisher). Equal amount of protein from each sample were separated in SDS-PAGE gels, and then transferred onto nitrocellulose or 0.22 μm polyvinylidene fluoride membranes (Merck Millipore). The membranes were blocked with 5% BSA, and incubated in turn with primary and horseradish peroxidase-conjugated secondary antibodies: pS199-Tau (44734G, Invitrogen, 1:2000), pT205-Tau (11108-1, Signalway, 1:2000), pS396-Tau (11102, Signalway, 1:2000), pS404-Tau (11112, Signalway, 1:2000), AT8 (MN1020, Thermo Fisher, 1:1000), Tau5 (ab80579, Abcam, 1:1000), Tau46 (T9450, Sigma, 1:1000), PP2A-Bα (4953, Cell signaling, 1:1000), Phospho-Ser/Thr (ab17464, Abcam1:1000), Ubiquitin (ab7254, Abcam, 1:1000), MAP2 (AB5622, Millipore, 1:2000), hTau-N368 (a generous gift from Prof. Keqiang Ye, Emory University School of Medicine, 1:1000), DEPTAC (developed by Daian Biotechnology, Wuhan, China, 1:500), β-actin (ab6276, Abcam, 1:2000). HRP-conjugated goat anti-rabbit IgG (A0208, Beyotime, 1:3000), HRP-conjugated goat anti-mouse IgG (A0216, Beyotime, 1:3000). Blots were visualized using ECL luminol reagent (P0018FS, Beyotime), and quantified using ImageJ software.

tau and PP2A-B = test: Co-immunoprecipitation of DEPTAC with tau and PP2A-B in primary neurons; type: cell-based; conditions: primary cultured rat neurons
Protocol: as §1
For co-immunoprecipitation, cultured cells were lysed on ice with RIPA buffer for 10 min containing 1:100 PMSF. Protein samples were incubated with protein G agarose (Beyotime) at 4 °C for 2 h, and then centrifuged for 5 min (4 °C, 12,000 rpm). Supernatants were subsequently incubated with specified antibodies and protein G agarose overnight at 4 °C. […] Immunoprecipitants were subsequently analyzed through Western blotting.

PP2A-Bα (PPP2R1A) = test: Fluorescence polarization competing assay, PP2A-Bα; type: binding, human; conditions: 2.5 μM PP2A-Bα, 0.1 μM FITC-labeled DEPTAC; 37 °C, 30 min
Protocol: Purified human tau and PP2A-Bα (PPP2R1A) were obtained from AtaGenix (Wuhan, China), and concentrated using ultrafiltration tubes (Beyotime). In basic binding assays, tau or PP2A-Bα was aliquoted into serial dilutions with a buffer containing 20 mM Tris-HCl, 150 mM NaCl, and 0.5 mM 1,4-Dithiothreitol (pH 7.4), and incubated with 0.1 μM FITC-labeled DEPTAC, FITC-labeled control peptide and FITC (9:1 vol/vol), respectively, in a black 384-well plates (Corning) under 37 °C for 30 min. In competition binding assays, a mixture of 2.5 μM tau or PP2A-Bα and 0.1 μM FITC-labeled DEPTAC were incubated with increasing amounts of unlabeled-DEPTAC under 37 °C for 30 min. Fluorescence intensity was measured by a Biotek Synergy 2 microplate reader with the wavelengths of 480 nm (60) (Ex)/560 nm (40) (Em). The polarization measurements were corrected for background contributions to the measured intensity by subtracting the parallel and perpendicular intensity readings by the vehicle-only wells from the intensity readings for each data point. Fluorescence polarization (P) was calculated by the formula P = (I║ − I┴) / (I║ + I┴), where I║ was the intensity of emitted light polarized parallel to the excitation light, and I┴ was the intensity of emitted light polarized perpendicular to the excitation light.

Tau368 mice = test: Object-place recognition test; type: in vivo, mouse
Protocol: Mice were repeatedly handled during DEPTAC administration before behavioral tests. For object-place recognition in the […], mice were placed in a box (50 × 50 × 50 cm) marked with a visual cue on the wall, and two identical objects (plastic toys) were placed at the two different corners. Each mouse was allowed to freely explore for 5 min, and then removed from the box for 2 min, during which the box and the objects were cleaned with 75% ethanol. Pseudorandomly, one of the two objects (object B) was moved to a new corner while the other object (object A) remained unmoved. In the test phase, mice were allowed to freely explore in the box for another 5 min. Videos were recorded and analyzed online using an ANY-maze video tracking system (Stoelting). The time mice stayed around each object was counted as exploring; and the preference ratio was calculated as the exploring time (B − A) / (B + A).

[1] = 5 μM MG132 for 5 h before harvest, *p < 0.05, n = 3 cell wells

(1) YQQYQDATADEQG, originates from the porcine β-tubulin 422–434 for recognizing and binding tau proteins.[5],[6] (2) GSGS, a linker for increasing the flexibility of the peptide.[15] (3) KKVAVVRTPPKSP, for recruiting PP2A-Bα,[16] and (4) RRRRRRRR [DEPTAC, DEPhosphorylation TArgeting Chimera; 38 amino acid residues, C185H314N72O56]
efficiency of tau dephosphorylation in the presence of MG132 (human tau (hTau); 5 μM MG132, compared with absence of MG132, n = 3 cell wells): reduced efficiency; also recorded: less efficiency | reduction of total tau (Tau5 and Tau46) in the presence of MG132 (human tau (hTau); 5 μM MG132 for 5 h before harvest): abolished | tau dephosphorylation at AT8 epitope in the presence of MG132 (human tau (hTau); [1]): still significant | tau dephosphorylation at pT205 in the presence of MG132 (human tau (hTau); [1]): still significant | total tau level over time (tau and PP2A-B; 6–24 h of post-DEPTAC treatment): time-dependent decrease; also recorded: gradual decrease | co-immunoprecipitation of DEPTAC with tau and PP2A-B (tau and PP2A-B; DEPTAC antibody, 24 h / 12 h (b9)): detected; also recorded: confirmed | reversal of FITC-DEPTAC/PP2A-Bα polarization by increased amount of unlabeled-DEPTAC (PP2A-Bα (PPP2R1A)): both were reversed | object-place recognition in control mice (Tau368 mice; Tau368 mice treated with NW): only limitedly affected | object-place recognition impairment (Tau368 mice; dox-treated Tau368 mice, 1-month DEPTAC after stopping dox, *p < 0.05, n = 10–15 mice): remarkably ameliorated; also recorded: rescued

From paper PMC8280143, “A novel dephosphorylation targeting chimera selectively promoting tau removal in tauopathies” (Signal Transduction and Targeted Therapy, 2021)
